Columns and labels:
[1] = system: cholesterol biosynthesis (rat liver homogenate); experiment: Inhibition of cholesterol biosynthesis: incorporation of radiolabelled acetic acid into cholesterol in rat liver homogenate; type: biochemical, Hannover Wistar male rats; details: 2 h at 37° C.
Excerpt: The cholesterol-biosynthesis-inhibiting effect of the compounds according to the invention is illustrated by the example of 9 α-hydroxy-3-oxo-4,24(25)-stigmastadien-26-oic acid (I, wherein M stands for hydrogen). The inhibitory effect of this compound was compared with that of 3β-hydroxy-5α-cholest-8(14)-en-15-one (Colestolone) by the method of A. Endo and co-workers [Eur. J. Biochem. 77, 31 (1977); Biochem. Biophys. Acta 486, 71 (1977)] studying in rat liver homogenate the incorporation of radiolabelled acetic acid into cholesterol.
Hannover Wistar male rats weighing 50-60 g were used for the experiment. Before the experiments the animals were fed for a week with rat chew enriched with 5% cholestyramine, in a reversed light cycle (light from 4 p.m. to 4 a.m., and dark from 4 a.m. to 4 p.m.). The food and water were available ad libitum.
The animals were decapitated on the day of the experiment, Livers were immersed in ice cold Krebs/Ringer bicarbonate buffer (pH 7.4) and cut into small pieces. Using a tissue homogenizer in a gentle mode of operation we prepared a crude liver homogenate of which a portion equivalent to 100 mg of wet liver was weighed into glass-stoppered tubes. The operations were carried out under constant cooling. The incubation mixture included the liver homogenate, the Krebs/Ringer bicarbonate buffer, the sodium-(1-^14 C)acetate (supplied by IZINTA; specific activity: 14.86 MBq/mg) and the (^3 H)cholesterol oleate (supplied by Du Pont; specific activity: 3067 GBq/mmole). The steroids inhibiting cholesterol biosynthesis were added to the incubation mixture in an alcoholic solution containing albumin, as described by G. J. Schroepfer and co-workers [J. Biol. Chem. 24, 8975 (1977)]. The final volume of the incubation mixture was 2.0 ml. Incubation went on for 2 hours in a water bath of 37° C., then 2 ml of alcohol containing 15% (w/v) of KOH were added to the mixture, which was then kept at 70°-75° C. for further 2 hours. The lipids were extracted from the alkaline mixture by petroleum ether. After evaporation of the solvent in nitrogen stream the dry residue was dissolved in a mixture of acetone and ethanol, then the cholesterol was precipitated by a solution of digitonin. The precipitate was centrifuged and dissolved in scintillation cocktail. The activity was measured for 5 minutes using a Hitachi scintillation spectrometer.

[2] = system: serum cholesterol; details: several animal species and humans, literature; cited from earlier work

| Structure (SMILES) | Inhibition, % ([1]; concentration 2.5 μM) [%] | Inhibition, % ([1]; concentration 10.0 μM) [%] | serum cholesterol-lowering effect [2] |
| --- | --- | --- | --- |
| CC(C)CCC[C@@H](C)[C@H]1CC(=O)C2=C3CC[C@H]4C[C@@H](O)CC[C@]4(C)[C@H]3CC[C@@]21C [3β-Hydroxy-5α-cholest-8(14)-en-15-one, 3β-hydroxy-5α-cholest-8(14)-en-15-one] | 16.6 | 55.0 | significant serum cholesterol-lowering effect |
| CCC(CC[C@@H](C)[C@H]1CC[C@H]2[C@@H]3CCC4=CC(=O)CC[C@]4(C)[C@@]3(O)CC[C@]12C)=C(C)C(=O)O [9α-hydroxy-3-oxo-4,24(25)-stigmastadien-26-oic acid] | 65.3 | 86.3 |  |
